Experimental data taken from ChEMBL document CHEMBL1144455, “A small molecule-kinase interaction map for clinical kinase inhibitors” (Nat Biotechnol, 2005).

Assays:
[1] = molecular target: T1, Receptor-type tyrosine-protein kinase FLT3 (Homo sapiens, UniProt P36888)
T1 sequence (P36888 whole entry): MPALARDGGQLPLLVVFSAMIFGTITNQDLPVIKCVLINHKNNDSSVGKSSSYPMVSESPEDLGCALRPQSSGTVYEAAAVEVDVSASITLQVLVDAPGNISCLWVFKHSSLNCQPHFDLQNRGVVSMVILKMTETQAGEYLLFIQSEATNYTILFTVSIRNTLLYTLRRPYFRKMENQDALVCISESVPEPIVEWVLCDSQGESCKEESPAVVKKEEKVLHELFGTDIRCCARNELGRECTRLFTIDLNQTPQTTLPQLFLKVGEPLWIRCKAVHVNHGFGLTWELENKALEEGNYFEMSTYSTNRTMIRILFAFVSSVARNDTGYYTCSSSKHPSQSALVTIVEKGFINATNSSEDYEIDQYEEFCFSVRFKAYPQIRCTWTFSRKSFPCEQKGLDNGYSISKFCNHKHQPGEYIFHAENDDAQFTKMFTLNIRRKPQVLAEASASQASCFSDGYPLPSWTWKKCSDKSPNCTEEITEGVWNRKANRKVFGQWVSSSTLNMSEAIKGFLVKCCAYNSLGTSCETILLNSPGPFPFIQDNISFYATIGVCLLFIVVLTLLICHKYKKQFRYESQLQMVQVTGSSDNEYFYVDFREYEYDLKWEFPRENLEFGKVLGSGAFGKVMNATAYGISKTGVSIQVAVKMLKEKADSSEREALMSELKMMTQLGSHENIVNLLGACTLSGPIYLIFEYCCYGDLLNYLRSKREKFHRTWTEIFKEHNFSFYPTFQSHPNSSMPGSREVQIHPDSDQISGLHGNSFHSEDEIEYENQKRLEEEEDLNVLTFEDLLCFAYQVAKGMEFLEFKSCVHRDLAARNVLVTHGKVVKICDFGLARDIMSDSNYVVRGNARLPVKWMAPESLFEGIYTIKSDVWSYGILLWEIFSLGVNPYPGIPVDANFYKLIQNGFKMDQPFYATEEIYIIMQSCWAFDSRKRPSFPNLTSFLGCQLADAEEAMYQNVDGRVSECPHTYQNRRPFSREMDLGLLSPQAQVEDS

[2] = molecular target: T2, Serine/threonine-protein kinase 36 (Homo sapiens, UniProt Q9NRP7)
T2 sequence (Q9NRP7 whole entry): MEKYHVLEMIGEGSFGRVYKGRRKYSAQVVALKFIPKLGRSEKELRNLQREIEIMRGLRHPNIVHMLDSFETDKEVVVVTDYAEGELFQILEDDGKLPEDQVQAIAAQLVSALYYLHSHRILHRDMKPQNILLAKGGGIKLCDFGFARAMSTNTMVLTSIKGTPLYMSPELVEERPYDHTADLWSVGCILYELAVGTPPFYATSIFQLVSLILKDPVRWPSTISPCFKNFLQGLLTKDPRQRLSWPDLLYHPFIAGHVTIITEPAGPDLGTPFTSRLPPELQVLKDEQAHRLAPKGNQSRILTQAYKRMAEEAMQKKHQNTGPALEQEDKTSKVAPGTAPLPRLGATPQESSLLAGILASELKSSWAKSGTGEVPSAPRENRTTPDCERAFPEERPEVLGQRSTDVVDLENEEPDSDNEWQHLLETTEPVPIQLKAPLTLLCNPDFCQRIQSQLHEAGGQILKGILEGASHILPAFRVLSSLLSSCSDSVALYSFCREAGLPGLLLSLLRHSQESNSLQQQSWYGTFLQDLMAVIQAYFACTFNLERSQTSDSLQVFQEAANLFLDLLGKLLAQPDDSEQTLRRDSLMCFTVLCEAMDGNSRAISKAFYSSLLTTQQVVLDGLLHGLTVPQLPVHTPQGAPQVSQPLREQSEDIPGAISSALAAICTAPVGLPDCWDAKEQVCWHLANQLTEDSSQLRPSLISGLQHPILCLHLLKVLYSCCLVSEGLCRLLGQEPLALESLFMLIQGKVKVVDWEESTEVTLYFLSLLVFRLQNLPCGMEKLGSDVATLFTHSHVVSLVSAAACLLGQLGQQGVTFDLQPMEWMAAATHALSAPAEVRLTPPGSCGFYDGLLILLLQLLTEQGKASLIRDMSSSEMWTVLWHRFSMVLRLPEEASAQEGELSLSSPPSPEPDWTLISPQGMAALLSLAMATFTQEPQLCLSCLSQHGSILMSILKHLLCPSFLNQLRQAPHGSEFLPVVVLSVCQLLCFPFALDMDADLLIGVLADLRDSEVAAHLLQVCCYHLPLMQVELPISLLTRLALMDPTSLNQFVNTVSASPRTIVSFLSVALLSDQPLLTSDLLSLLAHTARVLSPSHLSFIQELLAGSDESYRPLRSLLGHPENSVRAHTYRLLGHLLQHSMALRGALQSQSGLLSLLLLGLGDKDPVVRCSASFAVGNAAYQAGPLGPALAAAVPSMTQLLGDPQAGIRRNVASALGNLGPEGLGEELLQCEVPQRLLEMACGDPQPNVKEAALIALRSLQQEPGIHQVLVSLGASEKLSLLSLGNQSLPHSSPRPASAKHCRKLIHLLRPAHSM

[3] = molecular target: Ribosomal protein S6 kinase alpha-2 (Homo sapiens, UniProt Q15349)
[4] = molecular target: Protein-tyrosine kinase 6 (Homo sapiens, UniProt Q13882)
[5] = molecular target: Serine/threonine-protein kinase 38-like (Homo sapiens, UniProt Q9Y2H1)
[6] = molecular target: Serine/threonine-protein kinase pim-1 (Homo sapiens, UniProt P11309)
[7] = molecular target: T3, Phosphorylase b kinase gamma catalytic chain, liver/testis isoform (Homo sapiens, UniProt P15735)
T3 sequence (P15735 whole entry): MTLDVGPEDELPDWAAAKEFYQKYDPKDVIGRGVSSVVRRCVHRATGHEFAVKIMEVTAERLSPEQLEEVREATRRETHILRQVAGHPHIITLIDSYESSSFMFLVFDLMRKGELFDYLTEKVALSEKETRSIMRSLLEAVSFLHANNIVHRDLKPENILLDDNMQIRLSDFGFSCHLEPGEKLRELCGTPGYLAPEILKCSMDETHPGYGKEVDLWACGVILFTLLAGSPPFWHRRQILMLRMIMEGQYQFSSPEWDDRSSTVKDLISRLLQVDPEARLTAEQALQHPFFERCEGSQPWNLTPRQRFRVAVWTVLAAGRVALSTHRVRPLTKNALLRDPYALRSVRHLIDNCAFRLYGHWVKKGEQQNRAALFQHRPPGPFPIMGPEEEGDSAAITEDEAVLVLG

[8] = molecular target: Casein kinase I isoform gamma-1 (Homo sapiens, UniProt Q9HCP0)
[9] = molecular target: Activated CDC42 kinase 1 (Homo sapiens, UniProt Q07912)

Measured: Kd

Casein kinase I isoform gamma-1, sequence (Q9HCP0 whole entry, canonical isoform): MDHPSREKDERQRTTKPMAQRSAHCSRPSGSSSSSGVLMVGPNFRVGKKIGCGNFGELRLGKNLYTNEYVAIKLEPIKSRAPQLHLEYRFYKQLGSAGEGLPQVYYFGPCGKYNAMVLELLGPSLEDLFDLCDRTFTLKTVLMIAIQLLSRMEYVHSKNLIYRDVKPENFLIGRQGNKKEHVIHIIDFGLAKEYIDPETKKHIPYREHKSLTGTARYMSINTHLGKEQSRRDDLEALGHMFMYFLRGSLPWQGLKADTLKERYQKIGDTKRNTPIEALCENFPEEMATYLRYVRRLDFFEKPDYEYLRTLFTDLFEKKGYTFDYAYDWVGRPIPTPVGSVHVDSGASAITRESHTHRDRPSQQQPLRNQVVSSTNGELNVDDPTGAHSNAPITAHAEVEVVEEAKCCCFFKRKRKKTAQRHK
Serine/threonine-protein kinase pim-1, sequence (P11309 whole entry, canonical isoform): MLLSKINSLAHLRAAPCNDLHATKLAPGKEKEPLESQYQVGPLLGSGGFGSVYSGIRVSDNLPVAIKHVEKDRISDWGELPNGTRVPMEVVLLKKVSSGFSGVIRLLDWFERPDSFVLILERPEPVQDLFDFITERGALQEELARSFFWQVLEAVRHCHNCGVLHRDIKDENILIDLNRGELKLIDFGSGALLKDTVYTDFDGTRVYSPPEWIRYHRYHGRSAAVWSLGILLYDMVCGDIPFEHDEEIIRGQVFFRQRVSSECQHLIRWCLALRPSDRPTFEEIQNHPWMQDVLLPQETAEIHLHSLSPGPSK
Activated CDC42 kinase 1, sequence (Q07912 whole entry): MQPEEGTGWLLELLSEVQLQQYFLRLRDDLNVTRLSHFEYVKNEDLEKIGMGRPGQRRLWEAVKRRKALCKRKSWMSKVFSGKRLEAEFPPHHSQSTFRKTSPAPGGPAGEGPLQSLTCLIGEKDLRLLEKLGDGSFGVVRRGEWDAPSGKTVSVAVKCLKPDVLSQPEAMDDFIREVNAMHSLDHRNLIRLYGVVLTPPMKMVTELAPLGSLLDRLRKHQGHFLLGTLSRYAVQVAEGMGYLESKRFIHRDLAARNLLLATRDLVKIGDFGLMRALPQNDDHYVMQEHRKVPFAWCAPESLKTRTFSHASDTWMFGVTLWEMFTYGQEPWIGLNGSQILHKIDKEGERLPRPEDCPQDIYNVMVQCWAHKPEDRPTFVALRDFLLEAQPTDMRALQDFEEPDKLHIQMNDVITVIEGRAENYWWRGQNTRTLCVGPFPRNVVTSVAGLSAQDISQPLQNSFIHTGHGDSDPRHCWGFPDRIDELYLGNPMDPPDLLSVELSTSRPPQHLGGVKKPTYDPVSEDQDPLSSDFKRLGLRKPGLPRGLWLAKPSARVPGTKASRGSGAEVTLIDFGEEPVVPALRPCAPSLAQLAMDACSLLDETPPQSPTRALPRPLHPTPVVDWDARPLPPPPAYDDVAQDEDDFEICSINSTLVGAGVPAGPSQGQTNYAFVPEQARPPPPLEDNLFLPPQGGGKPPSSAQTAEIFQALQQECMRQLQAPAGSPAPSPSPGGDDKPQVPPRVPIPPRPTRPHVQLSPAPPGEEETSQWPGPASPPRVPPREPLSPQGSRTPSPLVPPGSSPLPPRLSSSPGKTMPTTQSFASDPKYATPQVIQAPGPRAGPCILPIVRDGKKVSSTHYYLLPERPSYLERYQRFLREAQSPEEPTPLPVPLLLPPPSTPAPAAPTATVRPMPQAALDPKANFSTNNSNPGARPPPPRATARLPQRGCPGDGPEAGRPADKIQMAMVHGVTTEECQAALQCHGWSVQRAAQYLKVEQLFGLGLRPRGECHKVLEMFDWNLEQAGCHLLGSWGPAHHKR
Protein-tyrosine kinase 6, sequence (Q13882 whole entry): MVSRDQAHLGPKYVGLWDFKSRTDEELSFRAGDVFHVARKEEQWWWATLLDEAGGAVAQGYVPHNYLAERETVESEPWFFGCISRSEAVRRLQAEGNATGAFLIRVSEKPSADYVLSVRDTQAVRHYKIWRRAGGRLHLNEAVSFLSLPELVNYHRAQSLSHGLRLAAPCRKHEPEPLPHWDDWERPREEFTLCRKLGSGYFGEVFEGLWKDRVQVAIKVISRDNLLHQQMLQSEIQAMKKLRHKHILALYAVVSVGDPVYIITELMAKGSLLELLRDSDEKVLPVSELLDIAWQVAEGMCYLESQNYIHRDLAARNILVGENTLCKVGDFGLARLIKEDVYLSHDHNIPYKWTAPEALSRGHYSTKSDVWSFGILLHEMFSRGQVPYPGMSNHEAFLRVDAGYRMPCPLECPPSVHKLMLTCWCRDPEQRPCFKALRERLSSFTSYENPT
Ribosomal protein S6 kinase alpha-2, sequence (Q15349 whole entry): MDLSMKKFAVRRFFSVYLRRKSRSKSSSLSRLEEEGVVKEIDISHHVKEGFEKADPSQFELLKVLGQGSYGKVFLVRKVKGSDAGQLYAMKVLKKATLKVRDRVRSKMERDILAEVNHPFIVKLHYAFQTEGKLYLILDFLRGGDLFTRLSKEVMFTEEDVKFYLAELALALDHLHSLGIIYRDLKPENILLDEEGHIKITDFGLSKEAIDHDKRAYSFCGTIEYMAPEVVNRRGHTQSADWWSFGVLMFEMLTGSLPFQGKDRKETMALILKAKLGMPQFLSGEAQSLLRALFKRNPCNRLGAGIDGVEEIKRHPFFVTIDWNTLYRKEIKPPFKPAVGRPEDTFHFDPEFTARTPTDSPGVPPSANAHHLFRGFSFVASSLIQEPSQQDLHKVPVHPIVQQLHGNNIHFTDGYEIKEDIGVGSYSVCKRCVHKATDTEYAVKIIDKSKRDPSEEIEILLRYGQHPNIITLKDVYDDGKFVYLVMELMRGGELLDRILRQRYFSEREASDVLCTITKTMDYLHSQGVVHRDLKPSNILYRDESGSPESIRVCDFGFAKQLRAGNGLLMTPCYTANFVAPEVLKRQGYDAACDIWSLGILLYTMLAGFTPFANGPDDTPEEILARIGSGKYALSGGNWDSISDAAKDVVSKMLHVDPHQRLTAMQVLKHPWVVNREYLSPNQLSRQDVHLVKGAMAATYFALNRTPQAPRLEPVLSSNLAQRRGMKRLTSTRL
Serine/threonine-protein kinase 38-like, sequence (Q9Y2H1 whole entry): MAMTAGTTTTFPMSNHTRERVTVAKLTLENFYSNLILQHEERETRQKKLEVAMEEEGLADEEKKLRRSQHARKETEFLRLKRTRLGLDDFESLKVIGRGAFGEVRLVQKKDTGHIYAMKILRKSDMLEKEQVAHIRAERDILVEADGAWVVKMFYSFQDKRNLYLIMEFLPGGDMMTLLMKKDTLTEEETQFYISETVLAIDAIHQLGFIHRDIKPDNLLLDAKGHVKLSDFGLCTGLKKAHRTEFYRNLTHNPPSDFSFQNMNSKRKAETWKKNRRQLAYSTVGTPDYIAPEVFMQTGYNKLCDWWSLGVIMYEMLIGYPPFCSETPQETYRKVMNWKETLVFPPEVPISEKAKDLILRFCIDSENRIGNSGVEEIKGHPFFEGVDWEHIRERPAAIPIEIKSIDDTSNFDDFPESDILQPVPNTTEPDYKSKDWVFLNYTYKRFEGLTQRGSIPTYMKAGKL

C#Cc1cccc(Nc2ncnc3cc(OCCOC)c(OCCOC)cc23)c1 [ERLOTINIB]
Not Active: all assays above

Cc1ccc(NC(=O)c2ccc(CN3CCN(C)CC3)cc2)cc1Nc1nccc(-c2cccnc2)n1 [IMATINIB]
Not Active: all assays above

O=c1ncn2nc(Sc3ccc(F)cc3F)ccc2c1-c1c(Cl)cccc1Cl [NEFLAMAPIMOD]
Not Active: all assays above

CCOc1cc2ncc(C#N)c(Nc3ccc(F)c(Cl)c3)c2cc1NC(=O)/C=C/CN(C)C [PELITINIB]
Not Active: [1] | [4] | [6] | [8]

Oc1ccc(-c2nc(-c3ccc(F)cc3)c(-c3ccncc3)[nH]2)cc1 [SB-202190]
not listed: [2] | [4]
Not Active: all other assays above

C[S+]([O-])c1ccc(-c2nc(-c3ccc(F)cc3)c(-c3ccncc3)[nH]2)cc1 (stereo not given) [SB-203580]
not listed: [2] | [4]
Not Active: all other assays above

CC[C@H](CO)Nc1nc(NCc2ccccc2)c2ncn(C(C)C)c2n1 [SELICICLIB]
not listed: [3] | [8]
Not Active: all other assays above

Oc1c2ccccc2c2c3c(cccc13)N=N2 [SP-600125]
Not Active: [1] | [2] | [4] | [6] | [9]

COc1cc2c(N3CCN(C(=O)Nc4ccc(OC(C)C)cc4)CC3)ncnc2cc1OCCCN1CCCCC1 [TANDUTINIB]
not listed: [1]
Not Active: all other assays above
